Data from PMC4183595, “Study on the Main Components Interaction from Flos Lonicerae and Fructus Forsythiae and Their Dissolution In Vitro and Intestinal Absorption in Rats” (PLoS ONE, 2014).
Read-outs that look alike come from different tables or passages of the source.

Key:
[1] = tested on: P-gp, MRP2 and BCRP; parameters: method as in PMID 24035225, PMID 25442264; settings: previous study; ref [21]–[22]; cited from earlier work
[2] = tested on: Caco-2 cells; assay: In vitro Caco-2 monolayer model, apical to basolateral transport (P app); type: in vitro ADME, human; settings: Caco-2 monolayer, HBSS pH 6.0, apical to basolateral
Experimental: Caco-2 cells were cultured in high glucose DMEM with 10% fetal bovine serum, 1% nonessential amino acids. Cells were cultured in a humidified atmosphere of 5% CO2 at 37°C. After reaching 80% confluens, Caco-2 cells were harvested with 0.05% trypsin-EDTA solution and seeded on top of CC inserts in 6-well plates, which has a surface area of 4.2 cm^2, at a density of 1.0×10^5 cells/cm^2. The protocols for cell culture in Transwell inserts were similar to those described previously.
Hank’s balanced salt solution (HBSS) was used as the transport buffer for the transport study in Caco-2 cells monolayer model. It was prepared by dissolving 9.5 grams of commercial available HBSS powder in 1000 mL water.
Cell culture experiments were described previously. Briefly, after culture medium was aspirated, the cell monolayers were washed three times with blank HBSS. […] The monolayers were incubated with the blank HBSS for 1 h with 37°C. Thereafter the incubation medium was aspirated. Afterwards, a solution containing the compound was loaded onto the apical side. The amounts of transported compound were measured as a function of time. […] The samples were taken at 0, 1, 2, 3 and 4 h after incubation. At the end of the transport experiment, integrity of the monolayer was monitored by TEER value.

[3] = Rat in vivo pharmacokinetics study after oral administration of product A, B or C; parameters: species or system Male Sprague-Dawley (SD) rats; AUC 0→t in product C group, increased to % compared to that in product A or B groups: concentration or dose not given beside the values; settings: for AUC(0-t) / AUC(0-inf) / MRT / Tmax / half-life / Cmax: male, Sprague-Dawley, rat, plasma; for AUC(0-t) / AUC(0-inf) / MRT / Tmax / half-life: 10 mL·kg^−1; for AUC(0-t): oral product C group; for AUC(0-inf) / MRT / Tmax / half-life / Cmax: po, 10 mL·kg^−1, rats; for half-life: read-out: T 1/2z; for Cmax: mean±SD; for AUC 0→t in product C group, increased to % compared to that in product A or B groups: product C versus product A or B
Experimental: Product A (extract mixed with FLJ extract and water, (1∶1, v / v )), product B (extract mixed with FF extract and water, (1∶1, v / v )) and product C (extract mixed with FLJ and FF extracts, (1∶1, v / v )) were given to oral administration to rats, respectively.
Male SD rats (∼250 g) were kept in an environmentally controlled breeding room (temperature: 20±2°C, relative humidity: 60±5%) for 1 week. […] The rats were randomly divided into three groups with no less than six rats in each group to receive various administrations at a single oral dose (10 mL·kg^−1) by gastric gavage. […] Subsequently, plasma was prepared by centrifugation at 1,816×g, 4°C for 7 min, and immediately analyzed or stored at −70°C for further analysis.
The main pharmacokinetic parameters including the peak plasma concentration (C max), the time to C max (T max), the AUC from 0 to infinity (AUC 0–∞), the AUC form 0 to time (AUC 0–t), mean residence time (MRT), and terminal elimination half-life (T 1/2z) were calculated by the non-compartmental analysis of plasma concentration vs. time data using the “DAS 2.1.1” software (Mathematical Pharmacology Professional Committee of China, Shanghai, China).

[4] = single oral dose 10 mL·kg^−1 of product B (FF extract and water 1:1)
[5] = single oral dose 10 mL·kg^−1 of product C (FLJ and FF extracts 1:1)
[6] = single oral dose 10 mL·kg^−1 of product A (FLJ extract and water 1:1)

| AUC(0-t) ([3]; rats) | AUC(0-inf) ([3]; oral product C) | MRT ([3]; oral product C) | Tmax ([3]; oral product C) | half-life ([3]; oral product C) | Cmax [3, 5] | AUC 0→t in product C group, increased to % compared to that in product A or B groups ([3]; rats, oral) | P app in product C group, % compared to that in product A group [2] | AUC(0-inf) ([3]; oral product A) | MRT ([3]; oral product A) | half-life ([3]; oral product A) | Cmax [3, 6] | Tmax ([3]; oral product A) | Structure (SMILES) | efflux transporters influencing the intestinal absorption [1] | other results |
| --- | --- | --- | --- | --- | --- | --- | --- | --- | --- | --- | --- | --- | --- | --- | --- |
| 82.4 ng·h/mL | 89.7 ng·h/mL | 9.63 h | 10 min | 440 ± 47.4 min | 30.8 ± 5.66 ng/mL | 162% | 164% | 71.5 ng·h/mL | 7.3 h | 292 ± 77.6 min | 27.6 ± 4.73 ng/mL | – | O=C(/C=C/c1ccc(O)c(O)c1)O[C@@H]1C[C@](O)(C(=O)O)C[C@@H](OC(=O)/C=C/c2ccc(O)c(O)c2)[C@H]1O [3,5-dicaffeoylquinic acid] | influenced by P-gp, MRP2 and BCRP | – |
| 259 ng·h/mL | 404 ng·h/mL | 6.45 h | 10 min | 515 ± 28 min | 181 ± 65 ng/mL | 286% | 136% | 138 ng·h/mL | 5.37 h | 458 ± 38.2 min | 75.7 ± 30.1 ng/mL | 10 min | O=C(/C=C/c1ccc(O)c(O)c1)O[C@@H]1C[C@@](O)(C(=O)O)C[C@@H](O)[C@@H]1O [Neochlorogenic acid] | influenced by P-gp, MRP2 and BCRP | – |
| 1270 ng·h/mL | – | 8.28 h | 10 min | 461 ± 32.1 min | 661 ± 294 ng/mL | 215% | 140% | 707 ng·h/mL | 5.78 h | 322 ± 44 min | 367 ± 169 ng/mL | 10 min | O=C(/C=C/c1ccc(O)c(O)c1)O[C@@H]1C[C@](O)(C(=O)O)C[C@@H](O)[C@H]1O [Chlorogenic acid] | influenced by P-gp, MRP2 and BCRP | – |
| 321 ng·h/mL | 351 ng·h/mL | 7.55 h | 10 min | 279 ± 17.2 min | 449 ± 22.8 ng/mL | 235% | 133% | 196 ng·h/mL | 5.55 h | 104 ± 46.9 min | 352 ± 29.4 ng/mL | 10 min | O=C(/C=C/c1ccc(O)c(O)c1)O[C@H]1[C@H](O)C[C@](O)(C(=O)O)C[C@H]1O [Cryptochlorogenic acid] | influenced by P-gp, MRP2 and BCRP | – |
| 24.4 ng·h/mL | 38.8 ng·h/mL | 8.95 h | 12 min | 409 ± 143 min | 12.5 ± 4.07 ng/mL | 318% | 137% | 22.9 ng·h/mL | 7.03 h | 295 ± 37 min | 4.79 ± 1.87 ng/mL | 15 min | O=C(C=Cc1ccc(O)c(O)c1)OC1CC(O)(C(=O)O)CC(O)C1OC(=O)C=Cc1ccc(O)c(O)c1 (stereo not shown) [3,4-dicaffeoylquinic acid] | influenced by P-gp, MRP2 and BCRP | – |

The next lines start with the compound.

| Structure (SMILES) | AUC(0-t) ([3]; rats) | AUC(0-inf) ([3]; oral product C) | MRT ([3]; oral product C) | Tmax ([3]; oral product C) | half-life ([3]; oral product C) | Cmax [3, 5] | AUC 0→t in product C group, increased to % compared to that in product A or B groups ([3]; rats, oral) | P app in product C group, % compared to that in product A group [2] | AUC(0-inf) ([3]; oral product A) | MRT ([3]; oral product A) | half-life ([3]; oral product A) | Cmax [3, 6] | Tmax ([3]; oral product A) | efflux transporters influencing the intestinal absorption [1] | other results |
| --- | --- | --- | --- | --- | --- | --- | --- | --- | --- | --- | --- | --- | --- | --- | --- |
| C[C@@H]1O[C@@H](OC[C@H]2O[C@@H](OCCc3ccc(O)c(O)c3)[C@H](O)[C@@H](O)[C@@H]2OC(=O)/C=C/c2ccc(O)c(O)c2)[C@H](O)[C@H](O)[C@H]1O [Forsythoside A] | 420 ng·h/mL | 773 ng·h/mL | 7.53 h | 10 min | 359 ± 21.4 min | 182 ± 38.6 ng/mL | 230% | – | – | – | – | – | – | affected by P-gp and MRP2, not BCRP | P app in product C group, % compared with that in product B group [2]: 165%; AUC(0-inf) ([3]; oral product B): 229 ng·h/mL; MRT ([3]; oral product B): 3.75 h; Tmax ([3]; oral product B): 10 min; half-life ([3]; oral product B): 276 ± 62.4 min; Cmax [3, 4]: 102 ± 6.19 ng/mL |
| O=c1cc(-c2ccc(O)c(O)c2)oc2cc(O)cc(O)c12 [Luteolin] | – | 46.9 ng·h/mL | 4.67 h | 10 min | 265 ± 15.7 min | 19.5 ± 5.43 ng/mL | – | 240% | 88.3 ng·h/mL | 5.78 h | 423 ± 56.6 min | 44.9 ± 19.8 ng/mL | 10 min | – | AUC 0→t in product C group compared with product A or B group ([3]; rats, oral, same dosages administrated): lower significantly |
| O=c1cc(-c2ccc(O)c(O)c2)oc2cc(O[C@@H]3O[C@H](CO)[C@@H](O)[C@H](O)[C@H]3O)cc(O)c12 [Luteoloside] | 4.76 ng·h/mL | 5 ng·h/mL | – | 10 min | 579 ± 85.7 min | 2.48 ± 1.34 ng/mL | 137% | 174% | 2.97 ng·h/mL | – | 383 ± 13.2 min | 1.26 ± 0.655 ng/mL | 10 min | – | – |
| O=C(O)/C=C/c1ccc(O)c(O)c1 [Caffeic acid] | – | 737 ng·h/mL | 6.28 h | 10 min | 392 ± 61.1 min | 98.1 ± 16.2 ng/mL | – | 275% | 1190 ng·h/mL | 6.65 h | 360 ± 66.3 min | 181 ± 17.6 ng/mL | 10 min | – | P app in product C group, % compared with that in product B group [2]: 247%; AUC(0-inf) ([3]; oral product B): 683 ng·h/mL; MRT ([3]; oral product B): 5.57 h; Tmax ([3]; oral product B): 10 min; half-life ([3]; oral product B): 332 ± 53.6 min; Cmax [3, 4]: 91.1 ± 6.74 ng/mL; bioavailability in product C group compared with that in product A group ([3]; rats, oral): significantly lower; bioavailability in product C group compared with that in product B group ([3]; rats, oral): no significant difference |
